Results as given in paper PMC10518717, “High-Throughput Screening and Proteomic Characterization of Compounds Targeting Myeloid-Derived Suppressor Cells” (Molecular & Cellular Proteomics : MCP, 2023).
Where two headings read alike, the source gives them in different places.

System: NUP-MDSC
Assay: Secondary mouse MDSC screen (dose-dependent; IFNγ secretion and T cell proliferation)
Format: cell-based
Conditions: for EC50: Mus musculus, NUP-MDSC/CD8+ T cell coculture; for activity in the NUP-MDSC assay (proliferation and INFγ secretion of mouse CD8+ T cells): dose-dependent confirmation screen
Method: Compound source plates (REMP-PP#180030) were pre-prepared by adding 500 nl compound solution (5 mmol/l starting concentration) and 11.5 μl Hepes (20 mmol/l) buffer to achieve a final ready to screen concentration of 0.2 mmol/l. Cocultured cell assay plates were prepared by dispensing 20 μl of differentiated MDSC cells (12,500 cells/cavity) and 20 μl of CD8+ T-cells with a MultidropCombi (12,500 cells/cavity). In the next step, 2 μl of pre-prepared compound solution was transferred via BC i5 to the cell plate followed by 3days incubation at 37 °C and 5% CO2. Afterward, the supernatant in cell plates were homogenized via orbital shaking at 2000 rpm for 20s and centrifugated with 1650 rpm for 30 s. On a BC i5 pipetting robot, 2 μl supernatant were transferred to a pre-filled (30 μl PBS) assay plate followed by centrifugation and addition of 8 μl IFNγ HTRF detection kit, followed by orbital mixing at 2000 rpm for 20s and an incubation step for 3 days at 37 °C and 5% CO2. Assay plate was analyzed on an PE Envision. Cell plates were centrifuged in parallel with 300g for 60 s and orbital mixed at 2000 rpm for 20 s followed by proliferation analysis via Sartorius IQue2. Effects were normalized against stimulator control mIL-2 and 0.2% dimethyl sulfoxide (DMSO) as neutral control. A hit was defined as a compound with >50% effect in at least one of the measured effects.
Compound source plates (REMP-PP#180030) for dose-dependent secondary screens were pre-prepared by adding […] compound solution (1.0E + 01 mmol/l, 3.2E + 00 mmol/l, 1.0E + 00 mmol/l, 3.2E-01 mmol/l, 1.0E-01 mmol/l, 3.2E-02 mmol/l, 1.0E-02 mmol/l, 3.2E-03 mmol/l, 1.0E-03 mmol/l, 3.2E-04 mmol/l; starting concentration) and 12 μl Hepes (20 mM) buffer to achieve a final ready to screen concentration of 4.0E-02 mmol/l, 1.3E-02 mmol/l, 4.0E-03 mmol/l, 1.3E-03 mmol/l, 4.0E-04 mmol/l, 1.3E-04 mmol/l, 4.0E-05 mmol/l, 1.3E-05 mmol/l, 4.0E-06 mmol/l, and 1.3E-06 mmol/l. All other steps are identical to the described workflow under “Primary mouse MDSC screen”.
After confirming the physiological and pharmacological suitability of the NUP-MDSC model, we developed a high-throughput screen for the identification of potential MDSC modulators (Fig. 4A and supplemental Fig. S3). To accomplish this, mouse NUP-MDSC were generated as described before, co-cultured with freshly isolated mouse CD8+ T cells, which were activated with anti-CD3/anti-CD28 antibodies, and subsequently treated with compounds or DMSO vehicle (supplemental Fig. S4A). After 72 h, T cell activity was assessed by recording T cell proliferation and IFN-γ secretion. […] Compounds were declared hits if reversing the suppression effect of NUP-MDSC on T cells with ≥50% in either readout resulting in 392 hit compounds (Fig. 4B). […]

Structure (SMILES)	EC50 (Fig. 4D, read-out: T cell proliferation EC50) [µM]	EC50 (read-out: EC50, based on INFγ secretion of secondary mouse screen) [µM]	activity in the NUP-MDSC assay (proliferation and INFγ secretion of mouse CD8+ T cells)
CCOC(=O)c1nnn(-c2nn3nnnc3c3ccccc23)c1C [compound 2]	6.5	2.6	rescued the proliferation and INFγ secretion
c1ccc2c(c1)c(-n1ccnc1)nn1nnnc21 [compound 3]	–	–	inactive
